Reference: EP1935986B1, “Luminogenic and fluorogenic compounds and methods to detect molecules or conditions” (priority 2005, dated 2006)
Where “and” joins values, the source holds several entries; their conditions need not be identical. Identical values can stand only once.

Columns and labels:
beta-glucuronidase (GUS) = target: T1, beta-glucuronidase (GUS) (Homo sapiens, UniProt P08236); test: Beta-glucuronidase assay with luciferin 6'-glucuronide (luminescent) or 4-methylumbelliferyl glucuronide (fluorescent); assay type: biochemical; details: for limit-of-detection: GUS enzyme detected, luminescent vs fluorescent substrate; for luminescence, + GUS: pH 6.3, 15 minutes
T1 construct: purchased Sigma-Aldrich
T1 sequence (P08236 23-651): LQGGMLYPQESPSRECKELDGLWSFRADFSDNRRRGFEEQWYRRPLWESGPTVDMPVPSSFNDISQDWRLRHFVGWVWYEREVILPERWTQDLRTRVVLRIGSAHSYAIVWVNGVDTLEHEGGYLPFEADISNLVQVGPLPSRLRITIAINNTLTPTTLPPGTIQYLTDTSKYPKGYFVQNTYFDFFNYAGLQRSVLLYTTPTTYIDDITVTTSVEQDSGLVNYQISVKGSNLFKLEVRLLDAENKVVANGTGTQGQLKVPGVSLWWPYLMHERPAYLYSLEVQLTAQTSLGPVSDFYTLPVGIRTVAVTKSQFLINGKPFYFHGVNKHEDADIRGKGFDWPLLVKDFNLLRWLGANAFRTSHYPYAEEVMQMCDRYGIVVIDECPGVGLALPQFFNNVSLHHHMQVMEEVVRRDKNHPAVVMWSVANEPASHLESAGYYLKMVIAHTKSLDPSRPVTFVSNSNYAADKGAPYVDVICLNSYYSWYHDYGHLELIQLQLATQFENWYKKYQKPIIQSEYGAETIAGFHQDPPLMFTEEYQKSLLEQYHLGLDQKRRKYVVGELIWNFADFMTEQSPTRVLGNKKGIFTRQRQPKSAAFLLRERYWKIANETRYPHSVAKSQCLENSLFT
Description: The source of the human enzyme was Sigma-Aldrich. GUS was incubated with the substrate in 50 mM MES, pH 6.3, for 15 minutes. […]

[1] = tested on: calf intestinal alkaline phosphatase; test: Luminescent alkaline phosphatase assay with AP 4, luciferase and ATP; assay type: biochemical; details: 1 µM AP 4
Description: Alkaline Phosphatase (Promega Corp. M1821) was diluted in 50 mM Tris Cl, pH 9.3, 1 mM MgCl2, 0.1 mM ZnCl2 to a concentration of 1 fmol/µl to 0.01 zeptomole/µl.
A reaction solution was assembled containing 1 µM AP 4 (Figure 69); 100 µg/ml of the thermostable luciferase, 2 mM ATP; 10 mM MgCl2; 100 µM ZnCl2 in 50 mM Tris Cl, pH 8.5. This solution was allowed to incubate for 1 hour at room temperature to reduce background light production.
Quadruplicate wells in a luminometer plate (Nunc Maxisorb plate) were given 10 µl of the diluted alkaline phosphatase stocks and 100 µl of reaction solution. The plate was incubated at room temperature for 30 minutes, then the light produced by the solutions was measured using a Veritas Luminometer.

luciferase = test: No-enzyme control: activity of luciferase towards the luciferin derivative (background luminescence); details: for luminescence, no GUS: 50 mM MES, pH 6.3
Description: The reactions (Table 1) were assembled by first adding the water and 1 M BisTris solutions in individual 0.5 ml microfuge tubes, then adding the other components except for the GST #3 solution. Finally, the GST #3 (Figure 12) solution was added to the reactions, the resulting solution was mixed, and the time of addition noted. […]
The GST #3 addition was performed last and the solutions were mixed immediately after addition of GST #3. […] After mixing, the light produced by the solution was measured using a Turner TD 20/20 luminometer.
After assembly, the enzyme stock solutions were diluted 1:10 into 10 mM HEPES, pH 7.5 and the following additions were made to the reactions.
A 5 µl sample of the luciferol DMF solution was added to each of the reactions above and a timer was started upon the addition of the first luciferol/DMF solution to reaction 1. All reactions were kept at room temperature.
After incubating 5 minutes at room temperature, the light produced by these samples was measured using a Turner TD 20 luminometer.
To initiate the conversions, 5 µl of luciferol solution was added to reactions […], 6-9, and 11-15, and 10 µl of luciferol was added to reactions 5 and 10 and the tubes mixed after that addition. Immediately after luciferol addition to reaction 1, a timer was started and the time of luciferol addition to the other tubes noted. After mixing, reaction 11-15 were placed at 37°C.
After incubating 10 minutes at room temperature, the light produced by these samples was read using a Turner TD 20 luminometer (Table 18).
To initiate Step 1, 45 µl of enzyme and buffer were added to each well.
Solution A and Solution B are components of the NADPH Regeneration System (V9510, Promega Corp., Madison WI). […] Solution B contains 40 units/ml glucose-6-phosphate dehydrogenase in 5 mM citrate pH 5.5.

Cc1cc(=O)oc2cc(O[C@@H]3O[C@H](C(=O)O)[C@@H](O)[C@H](O)[C@H]3O)ccc12 [4-methylumbelliferyl glucuronide, reference compound]
Km (beta-glucuronidase (GUS); 50 mM MES, pH 6.3): 59 ± 8 µM
limit-of-detection (beta-glucuronidase (GUS)): 2.01 ng/mL

O=C(O)[C@H]1CSC(c2nc3ccc(OCc4ccc(OP(=O)(O)O)cc4)cc3s2)=N1 [AP-4, 6-(4-phosphoric acid benzylether) luciferin]
Net Reading ([1]; # AP molecules 0): 0
Avg Reading ([1]; # AP molecules 6): 2714.67
Net Reading ([1]; # AP molecules 6): 89
light reading, Reaction 1 ([1]; # AP molecules 6): 2706
light reading, Reaction 2 ([1]; # AP molecules 6): 2807
light reading, Reaction 3 ([1]; # AP molecules 6): 2631
Avg Reading ([1]; # AP molecules 60): 2772.5
Net Reading ([1]; # AP molecules 60): 148
light reading, Reaction 1 ([1]; # AP molecules 60): 2920
light reading, Reaction 2 ([1]; # AP molecules 60): 2795
light reading, Reaction 3 ([1]; # AP molecules 60): 2728
light reading, Reaction 4 ([1]; # AP molecules 60): 2647
Avg Reading ([1]; # AP molecules 600): 3079.8
Net Reading ([1]; # AP molecules 600): 455
light reading, Reaction 1 ([1]; # AP molecules 600): 3118
light reading, Reaction 2 ([1]; # AP molecules 600): 3051
light reading, Reaction 3 ([1]; # AP molecules 600): 3345
light reading, Reaction 4 ([1]; # AP molecules 600): 2805
Avg Reading ([1]; # AP molecules 6,000): 3185
Net Reading ([1]; # AP molecules 6,000): 560
light reading, Reaction 1 ([1]; # AP molecules 6,000): 3189
light reading, Reaction 2 ([1]; # AP molecules 6,000): 3144
light reading, Reaction 3 ([1]; # AP molecules 6,000): 3002
light reading, Reaction 4 ([1]; # AP molecules 6,000): 3405
Avg Reading ([1]; # AP molecules 60,000): 5685.3
Net Reading ([1]; # AP molecules 60,000): 3060
light reading, Reaction 1 ([1]; # AP molecules 60,000): 5956
light reading, Reaction 2 ([1]; # AP molecules 60,000): 5641
light reading, Reaction 3 ([1]; # AP molecules 60,000): 5416
light reading, Reaction 4 ([1]; # AP molecules 60,000): 5728
Avg Reading ([1]; # AP molecules 600,000): 30658.5
Net Reading ([1]; # AP molecules 600,000): 28034
light reading, Reaction 1 ([1]; # AP molecules 600,000): 30042
light reading, Reaction 2 ([1]; # AP molecules 600,000): 31132
light reading, Reaction 3 ([1]; # AP molecules 600,000): 29781
light reading, Reaction 4 ([1]; # AP molecules 600,000): 31679
Avg Reading ([1]; # AP molecules 6,000,000): 274510.5
Net Reading ([1]; # AP molecules 6,000,000): 271886
light reading, Reaction 1 ([1]; # AP molecules 6,000,000): 281115
light reading, Reaction 2 ([1]; # AP molecules 6,000,000): 254693
light reading, Reaction 3 ([1]; # AP molecules 6,000,000): 265592
light reading, Reaction 4 ([1]; # AP molecules 6,000,000): 296642
Avg Reading ([1]; # AP molecules 60,000,000): 2394497
Net Reading ([1]; # AP molecules 60,000,000): 2391872
light reading, Reaction 1 ([1]; # AP molecules 60,000,000): 2639163
light reading, Reaction 2 ([1]; # AP molecules 60,000,000): 2283882
light reading, Reaction 3 ([1]; # AP molecules 60,000,000): 2320675
light reading, Reaction 4 ([1]; # AP molecules 60,000,000): 2334267
Avg Reading (luciferase): 2624.5
light reading, Reaction 1 (luciferase): 2620
light reading, Reaction 2 (luciferase): 2735
light reading, Reaction 3 (luciferase): 2612
light reading, Reaction 4 (luciferase): 2531

O=C(O)[C@H]1O[C@@H](Oc2ccc3nc(C4=N[C@@H](C(=O)O)CS4)sc3c2)[C@H](O)[C@@H](O)[C@@H]1O [Luciferin 6'-glucuronide]
limit-of-detection (beta-glucuronidase (GUS)): 0.28 ng/mL
signal-to-noise, luminescence (beta-glucuronidase (GUS); [GUS] 4.3 ng/ml): 68
signal-to-noise, luminescence (beta-glucuronidase (GUS); [GUS] 8.7 ng/ml): 133
signal-to-noise, luminescence (beta-glucuronidase (GUS); [GUS] 34.7 ng/ml): 649
signal-to-noise, luminescence (beta-glucuronidase (GUS); [GUS] 69.4 ng/ml): 1411
signal-to-noise, luminescence (beta-glucuronidase (GUS); [GUS] 138.8 ng/ml): 3104
signal-to-noise, luminescence (beta-glucuronidase (GUS); [GUS] 277.5 ng/ml): 7300

O=C(O)[C@H]1O[C@@H](Oc2ccc3nc(C4=N[C@@H](C(=O)O)CS4)sc3c2)[C@H](O)[C@@H](O)[C@@H]1O [drawing 190]
luminescence, + GUS (beta-glucuronidase (GUS); [substrate] 3.5 uM, 50 mM MES): 46,210
luminescence, + GUS (beta-glucuronidase (GUS); [substrate] 31.5 uM, 50 mM MES): 232,533
luminescence, + GUS (beta-glucuronidase (GUS); [substrate] 94.4 uM, 50 mM MES): 423,619
luminescence, + GUS (beta-glucuronidase (GUS); [substrate] 283.1 uM, 50 mM MES): 696,778
luminescence, + GUS (beta-glucuronidase (GUS); [substrate] 849.3 uM, 50 mM MES): 994,977
luminescence, + GUS (beta-glucuronidase (GUS); [substrate] 2548.0 uM, 50 mM MES): 1,335,243
luminescence, + GUS (beta-glucuronidase (GUS); [substrate] […], 50 mM MES): 107,502
luminescence, no GUS (luciferase; [substrate] 3.5 uM): 1,108
luminescence, no GUS (luciferase; [substrate] 31.5 uM): 5,068
luminescence, no GUS (luciferase; [substrate] 94.4 uM): 13,091
luminescence, no GUS (luciferase; [substrate] 283.1 uM): 34,127
luminescence, no GUS (luciferase; [substrate] 849.3 uM): 91,975
luminescence, no GUS (luciferase; [substrate] 2548.0 uM): 209,219
luminescence, no GUS (luciferase; [substrate] […]): 2,190

OC[C@H]1CSC(c2nc3ccc(O)cc3s2)=N1 [luciferol]
light produced (luciferase; Table 18 Rx 1: no enzyme, KPO4 pH 7.4, room temperature, 30/60/95/190/280 minutes): 6.077 and 6.091 and 5.849 and 4.364 and 7.694
light produced (luciferase; Table 18 Rx 11: no enzyme, 37°C, time): 5.814 and 6.078 and 6.302 and 6.889 and 8.399
